This is an account of results in patent publication US7803801B2, “Aminopyridine compounds having Syk inhibitory activity” (Japan Tobacco, Inc., priority 2005, dated 2010).

The structures appear in SMILES notation. pIC50: −log10 of the molar value. Where a name gives a salt, the structure may show the parent alone.

For the first test, the target named is GST-Syk Full Protein (human) (Homo sapiens, UniProt P43405). As to the kind of experiment: Syk kinase inhibition test (HTRF method). In kind it is biochemical. To be noted: Tables 1-x, compounds A; read-out: sykHTRF ave IC50. The method in brief: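 Human GST-Syk full-length (6.4 nM) phosphorylated biotin-EDPDYEWPSA-NH2 (250 nM) with 100 μM ATP in HEPES pH 7.0/MgCl2 buffer, 2% DMSO, 30 min at room temperature. EDTA stop, then HTRF detection (streptavidin-XL665, Eu anti-phosphotyrosine) after 1 h; 665/620 ratio read.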
Usually pIC50 stands for the IC50 on a negative log10 scale, so that one unit is a factor of ten. Turning to `O=C(O)C(F)C1CCN(c2ncc(-c3cccc(Nc4ccccn4)n3)s2)CC1` (stereo not shown) [Compound A-716, fluoro-(1-{5-[6-(pyridin-2-ylamino)pyridin-2-yl]thiazol-2-yl}piperidin-4-yl)acetic acid dihydrochloride], the negative logarithm of the IC50 (pIC50) is over 7.00.
Still for that read-out and setting: the result for `CC(C)(O)c1ccnc(Nc2cccc(-c3cnc(N4CCC(CC(=O)O)CC4)s3)n2)c1` [Compound A-717, [1-(5-{6-[4-(1-hydroxy-1-methylethyl)pyridin-2-ylamino]pyridin-2-yl}thiazol-2-yl)piperidin-4-yl]acetic acid dihydrochloride] reads over 7.00.
Consider `Cc1ccnc(Nc2cccc(-c3cnc(N4CCC(C(C)(C)C(=O)O)CC4)s3)n2)c1` [Compound A-718, 2-methyl-2-(1-{5-[6-(4-methylpyridin-2-ylamino)pyridin-2-yl]thiazol-2-yl}piperidin-4-yl)propionic acid dihydrochloride], for which the pIC50 is over 7.00.
Same read-out and setting: the result for `Cc1ccnc(Nc2cccc(-c3cnc(N4CCCC(CCCCC(=O)O)C4)s3)n2)c1` (stereo not shown) [Compound A-719, 5-(1-{5-[6-(4-methylpyridin-2-ylamino)pyridin-2-yl]thiazol-2-yl}piperidin-3-yl)pentanoic acid dihydrochloride] reads over 7.00; that for `Cc1ccnc(Nc2cccc(-c3cnc(CN(C)C(C)(C)C(N)=O)s3)n2)c1` [Compound A-720, 2-methyl-2-(N-methyl-N-{5-[6-(4-methylpyridin-2-ylamino)pyridin-2-yl]thiazol-2-ylmethyl}amino)propionamide], over 7.00.

The same test, now with this note: Tables 2-x, thiophene compounds B; read-out: sykHTRK ave IC50.
On to `CC(=O)c1ccc(-c2cccc(N(C(C)=O)c3cc(C)ccn3)n2)s1` [Compound B-89], for which the pIC50 was under 6.00.
Still for that read-out and setting: the result for `CC(=O)c1ccc(-c2cccc(N(C)c3cc(C)ccn3)n2)s1` [Compound B-90] reads under 6.00; that for `Cc1ccnc(Nc2cccc(-c3ccc(COc4ccc(C(=O)O)cc4)s3)n2)c1` [Compound B-105], 6.00 to 7.00.
On the same count and under the same terms, the result for `Cc1ccnc(Nc2cccc(-c3ccc(CN4CCC(C(=O)O)CC4)s3)n2)c1` [Compound B-106] reads 6.00 to 7.00; that for `Cc1ccnc(Nc2cccc(-c3ccc(CN4CCc5cc(C(=O)O)ccc5C4)s3)n2)c1` [Compound B-107], 6.00 to 7.00.
The same measure, in the same setting: under `Cc1ccnc(Nc2cccc(-c3ccc(C(C)OCc4ccc(C(=O)O)cc4)s3)n2)c1` (stereo not shown) [Compound B-108] stands 6.00 to 7.00; under `Cc1ccnc(Nc2cccc(-c3ccc(C(O)C(F)(F)C(=O)O)s3)n2)c1` (stereo not shown) [Compound B-109, 2,2-difluoro-3-hydroxy-3-{5-[6-(4-methylpyridin-2-ylamino)pyridin-2-yl]thiophen-2-yl}propionic acid], over 7.00.
Turning to `Cc1ccnc(Nc2cccc(-c3ccc(CN4CCCc5ccc(C(=O)O)cc54)s3)n2)c1` [Compound B-110], the pIC50 was 6.00 to 7.00.
The same measure, in the same setting: under `Cc1ccnc(Nc2cccc(-c3ccc(C(=O)NC[C@H]4CC[C@H](C(=O)O)CC4)s3)n2)c1` [Compound B-111] stands 6.00 to 7.00.
On the same count and under the same terms, under `Cc1ccnc(Nc2cccc(-c3ccc(C(=O)NCc4ccc(C(=O)O)cc4)s3)n2)c1` [Compound B-112] stands 6.00 to 7.00; under `Cc1ccnc(Nc2cccc(-c3ccc(C(=O)N4CCC(CC(=O)O)CC4)s3)n2)c1` [Compound B-113], 6.00 to 7.00; under `C/C(=C\C(=O)O)c1ccc(-c2cccc(Nc3cc(C)ccn3)n2)s1` [Compound B-114], 6.00 to 7.00.
Still for that read-out and setting: the result for `Cc1ccnc(Nc2cccc(-c3ccc(C(=O)N4CCC(C(=O)O)CC4)s3)n2)c1` [Compound B-115] reads 6.00 to 7.00; that for `Cc1ccnc(Nc2cccc(-c3ccc(CNCc4ccc(C(=O)O)cc4)s3)n2)c1` [Compound B-116, 4-[({5-[6-(4-methylpyridin-2-ylamino)pyridin-2-yl]thiophen-2-ylmethyl}amino)methyl]benzoic acid], over 7.00.
With `Cc1ccnc(Nc2cccc(-c3ccc(C(=O)N[C@H](C(=O)O)C(C)C)s3)n2)c1` [Compound B-117], the pIC50 was 6.00 to 7.00.
Same read-out and setting: the result for `Cc1ccnc(Nc2cccc(-c3ccc(CNC[C@H]4CC[C@H](C(=O)O)CC4)s3)n2)c1` [Compound B-118] reads 6.00 to 7.00; that for `CC(=O)N(Cc1ccc(C(=O)O)cc1)Cc1ccc(-c2cccc(Nc3cc(C)ccn3)n2)s1` [Compound B-119, 4-[(N-acetyl-N-{5-[6-(4-methylpyridin-2-ylamino)pyridin-2-yl]thiophen-2-ylmethyl}amino)methyl]benzoic acid], over 7.00; that for `CC(=O)N(Cc1ccc(-c2cccc(Nc3cc(C)ccn3)n2)s1)C[C@H]1CC[C@H](C(=O)O)CC1` [Compound B-120, trans-4-[(N-acetyl-N-{5-[6-(4-methylpyridin-2-ylamino)pyridin-2-yl]thiophen-2-ylmethyl}amino)methyl]cyclohexanecarboxylic acid], over 7.00.
Same read-out and setting: under `Cc1ccnc(Nc2cccc(-c3ccc(CNC(=O)[C@H]4CC[C@H](C(=O)O)CC4)s3)n2)c1` [Compound B-121] stands 6.00 to 7.00; under `Cc1ccnc(Nc2cccc(-c3ccc(C(=O)N(C)Cc4ccc(C(=O)O)cc4)s3)n2)c1` [Compound B-122], 6.00 to 7.00.
On the same count and under the same terms, the result for `Cc1ccnc(Nc2cccc(-c3ccc(CN(C)C(=O)[C@H]4CC[C@H](C(=O)O)CC4)s3)n2)c1` [Compound B-123] reads 6.00 to 7.00; that for `CC(=O)N(CCC(=O)O)Cc1ccc(-c2cccc(Nc3cc(C)ccn3)n2)s1` [Compound B-124, 3-(N-acetyl-N-{5-[6-(4-methylpyridin-2-ylamino)pyridin-2-yl]thiophen-2-ylmethyl}amino)propionic acid hydrochloride], over 7.00; that for `Cc1ccnc(Nc2cccc(-c3ccc(CN(C)C(=O)c4ccc(C(=O)O)cc4)s3)n2)c1` [Compound B-125], 6.00 to 7.00.
On to `Cc1ccnc(Nc2cccc(-c3ccc(CN(Cc4ccccc4)C(=O)CCC(=O)O)s3)n2)c1` [Compound B-126], for which the pIC50 was 6.00 to 7.00.
Same read-out and setting: under `Cc1ccnc(Nc2cccc(-c3ccc(CN(Cc4ccc(C(=O)O)cc4)C(=O)C(C)C)s3)n2)c1` [Compound B-127, 4-[(N-isobutyryl-N-{5-[6-(4-methylpyridin-2-ylamino)pyridin-2-yl]thiophen-2-ylmethyl}amino)methyl]benzoic acid] stands over 7.00; under `Cc1ccnc(Nc2cccc(-c3ccc(CN(Cc4ccc(C(=O)O)cc4)C(=O)CO)s3)n2)c1` [Compound B-128, 4-[(N-(2-hydroxyacetyl)-N-{5-[6-(4-methylpyridin-2-ylamino)pyridin-2-yl]thiophen-2-ylmethyl}amino)methyl]benzoic acid], over 7.00.
